Patent US4481197A, “Anti-inflammatory deoxyribosides” (Burroughs Wellcome Co., priority 1982, dated 1984)

Columns and labels:
[1] = test system: carrageenan pleurisy (3 hour exudate volume); assay: Carrageenan Pleurisy Assay (CPA), acute anti-inflammatory activity; type: in vivo; details: statement in words
Procedure: Following the procedure described by Vinegar et al in Proc. Soc. Exp. Biol. Med.,143, 711, (1973), and recently modified (Vinegar et al., Eur. J. Rheum. Inflam. 1, 204 (1978)) the acute anti-inflammatory activity of 4-amino-1-(2-deoxy-β-D-ribofuranosyl)-1H-imidazo-[4,5-c]-pyridine was compared with that of known anti-inflammatory drugs. The average 3 hour exudate volume for each drug-treated group was determined and the % inhibition relative to solvent-fed control animals calculated, the ED50 (mg/kg of body weight) being the dose required to reduce the 3 hour exudate volume by 50%. There were 5 animals in each drug-treated group and the control group.

[2] = test system: mouse neutrophil chemotaxis; assay: Mouse neutrophil chemotaxis; type: cell-based
[3] = Analgesic activity; details: in vivo
[4] = Side effects / liver damage in animal models; details: in vivo
[5] = test system: inflammation; assay: Anti-inflammatory effectiveness by route; type: in vivo; details: orally, systemically and locally
[6] = test system: microbial purine nucleoside phosphorylase; details: Doskocil and Holy 1977; cited from earlier work

Nc1nccc2c1ncn2[C@H]1C[C@H](O)[C@@H](CO)O1 [4-amino-1-(2-deoxy-β-D-ribofuranosyl)-1H-imidazo-[4,5-c]-pyridine]
inhibition of carrageenan-induced pleurisy [1]: potent inhibitor
inhibition of mouse neutrophil chemotaxis [2]: potent inhibitor
analgesic activity per se [3]: no analgesic activity per se
side effects associated with prostaglandin inhibitors (gastric damage, inhibition of platelet aggregation) [4]: free of the side effects
side effects of the anti-inflammatory steroids [4]: free of the side effects
effectiveness as anti-inflammatory agent [5]: effective

Nc1ncnc2c1ccn2[C@@H]1O[C@H](CO)[C@@H](O)[C@H]1O [7-deazaadenosine]
substrate for microbial purine nucleoside phosphorylase [6]: not to be substrates

OC[C@H]1O[C@@H](n2ccc3c(O)ncnc32)[C@H](O)[C@@H]1O [7-deazainosine]
substrate for microbial purine nucleoside phosphorylase [6]: not to be substrates

Nc1nc2c(nnn2[C@@H]2O[C@H](CO)[C@@H](O)[C@H]2O)c(=O)[nH]1 [S-azaguanosine]
substrate for microbial purine nucleoside phosphorylase [6]: not to be substrates
